Experimental findings from ChEMBL document CHEMBL1123219, “Functional cholesteryl binding agents: synthesis, characterization, and evaluation of antibody binding to modified phospholipid vesicles” (J Med Chem, 1986) are described below.

The species entered for assay [1] is Homo sapiens. Kind of assay: Compound was tested for human IgG protein binding at 100 ug/mL.
The species named for assay [2] is Homo sapiens. Kind of assay: Compound was tested for human IgG protein binding at 1 mg/mL.
For assay [3], the species on record is Homo sapiens. In words: Compound was tested for human IgG protein stability at 100 ug/mL. Format: functional.

Regarding `CC(C)CCCC(C)C1CCC2C3CC=C4CC(OCCCCCCN=C=S)CCC4(C)C3CCC12C` (stereo not drawn), the Binding in assay [1] stood at 55.9%; in assay [2] it was 31.9%. The Stability in assay [3] came to 86.5%.

As for `CC(C)CCCC(C)C1CCC2C3CC=C4CC(OCCCCCCNC(=O)c5cccc(N6C(=O)C=CC6=O)c5)CCC4(C)C3CCC12C` (stereo not drawn), the results for the Binding in assay [1] and in assay [2] were 61.1% and 39.5%, respectively. The Stability in assay [3] amounted to 86%.

Regarding `CC(C)CCCC(C)C1CCC2C3CC=C4CC(OCCCCCCC(=O)ON5C(=O)CCC5=O)CCC4(C)C3CCC12C` (stereo not drawn), the Binding in assay [1] was determined as 69.5%; in assay [2], 46%. In assay [3], this molecule displayed a Stability of 91%.

For `CC(C)CCCC(C)C1CCC2C3CC=C4CC(OCCCCCC(=O)ON5C(=O)CCC5=O)CCC4(C)C3CCC12C` (stereo not drawn), the Binding in assay [1] stood at 77.5%; in assay [2] it was 40.3%. Moreover, the Stability in assay [3] was determined as 94.1%.

For `CC(C)CCCC(C)C1CCC2C3CC=C4CC(OCCCCCCSCc5ccc(C(=O)ON6C(=O)CCC6=O)cc5)CCC4(C)C3CCC12C` (stereo not drawn), the results for the Binding in assay [1] and in assay [2] were 60.4% and 43.3%, respectively. This molecule had a Stability in assay [3] of 91.8%.

In the case of `CC(C)CCCC(C)C1CCC2C3CC=C4CC(OCCCCCCO)CCC4(C)C3CCC12C` (stereo not drawn), the figures for the Binding in assay [1] and in assay [2] were 58.7% and 31.9%, respectively. The molecule further displayed a Stability in assay [3] of 86.4%.
